# Measurements from patent publication US12404304B1, “Telomerase reverse transcriptase (TERT) expression enhancing compounds and methods for using the same” (Sierra Sciences, LLC, priority 2007, dated 2025).
# Where two headings read alike, the source gives them in different places.
# Columns and labels:
# [1] = tested on: human TERT expression (hTERT mRNA); assay: Quantitative real-time RT-PCR of hTERT mRNA expression (Ct, transcripts) in compound-treated cells; type: cell-based
# Summary of the method: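 Read-out is cycle threshold, the cycle at which probe fluorescence released by Taq 5′-nuclease activity crosses a set level; Ct falls as hTERT mRNA rises. cDNA of treated and untreated cells was compared, with starting transcripts quantified against a known-cDNA standard curve.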
# viable cells in culture = assay: Cell viability assay (CellTiter-Glo Luminescent Cell Viability Assay, ATP quantitation, percent of vehicle control)
# Protocol: Cell viability is determined using a homogeneous method, such as CellTiter-Glo® Luminescent Cell Viability Assay (Promega Corporation, Madison, WI.) to determine the number of viable cells in culture These assays are based on quantitation of the ATP present, which signals the presence of metabolically active cells. Luminescent values of compound treated cells are compared to that of cells treated with vehicle alone to determine the average cell viability as a percent of control.
Structure (SMILES),Average Number of hTERT Transcripts [1],Average Cell Viability after 24 Hours (% DMSO) (viable cells in culture),Average Number of hTERT Transcripts ([1]; quantitative real-time RT-PCR)
Cc1cc(C)c(S(=O)(=O)Nc2ccccc2C(=O)NCCc2ccccc2)c(C)c1 [compound 1420],57.36,73.35 % DMSO,–
CCOc1cc(Br)cc(/C=N/NC(=O)COc2cccc(C)c2)c1O [compound 1262],–,57.61 % DMSO,8.78
Cc1[nH]c2c(-c3cccc(Br)c3)cnn2c(=O)c1Cc1ccccc1 [compound 1147],–,61.72 % DMSO,29.83
CCCCNC(=O)c1cc(-c2cccs2)on1 [compound 1197],–,88.24 % DMSO,168.54
O=C(NCC1CCCO1)c1cc(-c2cccs2)on1 (centres unmarked) [compound 1206],–,83.74 % DMSO,80.15
O=C(NCCc1ccccc1)c1cc(-c2cccs2)on1 [compound 1185],–,80.02 % DMSO,20.89
COc1ccc(COC(=O)C2=C(C)NC3=C(C(=O)CC(c4ccco4)C3)C2c2cccs2)cc1 (centres unmarked) [compound 1243],–,99.98 % DMSO,5.18
Cc1nc(-n2nc(C)c(CCC(=O)N3CCN(c4ccc(F)cc4)CC3)c2O)sc1C [compound 1136],–,90.51 % DMSO,135.61
Cc1nn2c(=O)c(Cc3ccccc3)c(C)[nH]c2c1-c1ccc(Cl)cc1 [compound 1145],–,63.03 % DMSO,76.07
CCc1cc(=O)oc2c(C)c(OC(=O)c3ccccc3)ccc12 [compound 1310],–,105.11 % DMSO,5.00
CCn1c(=S)[nH]c2scc(-c3ccc(OC)cc3)c2c1=O [compound 1394],7.00,100.14 % DMSO,–
O=C(NCCCn1ccnc1)c1cc(-c2ccc(F)cc2)on1 [compound 1179],–,97.79 % DMSO,3.70
Cc1nn2c(=O)cc(-c3ccccc3)[nH]c2c1-c1ccccc1 [compound 1162],–,65.07 % DMSO,113.08
CCCCC(=O)OC1=C(C(=O)c2ccccc2)N(CC)S(=O)(=O)c2ccccc21 [compound 1218],–,82.36 % DMSO,3.35
CC(C)(C)c1ccc(C(=O)NC(=S)Nc2c(Cl)cc(Cl)cc2Cl)cc1 [compound 1411],10.04,92.66 % DMSO,–
CCCNC(=O)c1cc(-c2ccc(F)cc2)on1 [compound 1180],–,81.47 % DMSO,56.10
CC(=O)Oc1ccccc1C(=O)Nc1ccc(F)cc1F [compound 1318],–,59.35 % DMSO,13.40
Cc1ccc(S(=O)(=O)Nc2ccccc2C(=O)NCCc2ccccc2)cc1[N+](=O)[O-] [compound 1424],37.45,94.37 % DMSO,–
O=C(Nc1nc(-c2ccccn2)cs1)c1cccc(S(=O)(=O)N2CCOCC2)c1 [compound 1173],–,86.99 % DMSO,43.63
CCOC(=O)c1nn(-c2ccc(Cl)cc2)c(=O)c2c(NC(=O)c3ccc(F)cc3)scc12 [compound 1300],–,62.52 % DMSO,6.98
COc1cccc(CCNC(=O)c2cc(-c3cccs3)on2)c1 [compound 1497],14.74,92.73 % DMSO,–
O=C(CSc1nnc(-c2ccncc2)o1)N1CCN(c2ccccc2F)CC1 [compound 1488],3.19,86.72 % DMSO,–
CCCN1C(C(=O)c2ccccc2)=C(OC(=O)CC)c2ccccc2S1(=O)=O [compound 1213],–,69.85 % DMSO,5.90
CC(C)(C)c1ccc(C(=O)N/N=C/c2c(O)ccc3ccccc23)cc1 [compound 1270],–,59.66 % DMSO,34.64
CCOC(=O)c1ccc(NC(=O)CSc2nnc(-c3ccc(OC)cc3)o2)cc1 [compound 1412],6.19,92.98 % DMSO,–
Cc1sc(CO)c(Sc2ccccc2)c1C(=O)O [compound 1314],–,109.57 % DMSO,8.82
CC(C)(C)NC(=O)NCc1nnnn1-c1ccccc1 [compound 1453],11.03,97.19 % DMSO,–
O=C(NCc1nccs1)c1cc(-c2cccs2)on1 [compound 1499],17.01,119.54 % DMSO,–
